What was measured:
FOXP3 gene = FOXP3 gene induction in prostate cancer cell lines by methyltransferase inhibitor; type: cell-based, human; conditions: prostate cancer cell lines PC3 and Du145
Method: Using a quantitative pyrosequencing method for FOXP3 analysis, the level of methylation in both the intronic CpG motif and the CpG island was quantitated in the promoter region of FOXP3, using DNA from 17 cases of micro-dissected normal and cancerous tissues. […] Morover, the increase in methylation strongly correlate with reduction of FOXP3 expression. To verify the significance of DNA methylation, prostate cancer cell lines PC3 and Du145 were treated with a methyltransferase inhibitor (5-aza-2′-deoxycytidine (5-AZA)).

JNK = test: Western blot of phospho-JNK1/2 in 4T1 cells; type: cell-based, mouse; conditions: for activation of JNK: anisomycin 1 μg/ml, PMA 0.5 μg/ml
Method: (§1) To identify the mechanism by which anisomycin induced FoxP3, the activation of ATF2, p38, and JNK upon treatment with either anisomycin or PMA was compared. 4T1 cells were treated with either vehicle control, anisomycin (1 μg/ml) or PMA (0.5 μg/ml). Western blots of the cell lysates were obtained using antibodies specific for phospho-ATF2, phospho-p38, ATF2, phospho-JNK1/2, phospho-c-Jun. Levels of beta-actin were used as loading controls.
(§2) Cells of a mammary tumor cell line were treated with anisomycin in conjunction with inhibitors of overlapping specificity. Specifically, 4T1 cells were treated with vehicle control, anisomycin (1 μg/ml) or PMA (0.5 μg/ml) in the presence or absence of inhibitors (2 μg/ml): SP10096 (SP), SB203580 (SB), and PD9786 (PD). Western blots of the cell lysates were obtained using antibodies specific for phosphor-ATF2, phospho-p38, ATF2, phospho-JNK1/2, phospho-c-Jun. Levels of beta-actin were used as loading controls.

p38 = target: T1, p38 (Mus musculus, UniProt P47811); type: cell-based; conditions: 4T1 cells; anisomycin 1 μg/ml, PMA 0.5 μg/ml
T1 construct: Western blots of the cell lysates were obtained using antibodies specific for phospho-ATF2, phospho-p38; endogenous in cells; host or cells: 4T1 mouse mammary tumor cells
T1 sequence (P47811 whole entry): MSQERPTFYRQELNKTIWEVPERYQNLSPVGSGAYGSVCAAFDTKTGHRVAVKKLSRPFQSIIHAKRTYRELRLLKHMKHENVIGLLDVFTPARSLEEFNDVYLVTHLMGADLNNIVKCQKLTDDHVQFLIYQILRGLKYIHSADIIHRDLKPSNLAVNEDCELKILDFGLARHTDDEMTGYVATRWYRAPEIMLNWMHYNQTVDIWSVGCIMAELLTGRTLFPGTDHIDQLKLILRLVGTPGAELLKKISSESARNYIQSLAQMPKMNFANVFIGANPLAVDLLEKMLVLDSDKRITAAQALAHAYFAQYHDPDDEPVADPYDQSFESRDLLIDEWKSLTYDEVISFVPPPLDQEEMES
Method: 4T1 cells were treated with either vehicle control, anisomycin (1 μg/ml) or PMA (0.5 μg/ml). Western blots of the cell lysates were obtained using antibodies specific for phospho-ATF2, phospho-p38, ATF2, phospho-JNK1/2, phospho-c-Jun. Levels of beta-actin were used as loading controls.
Cells of a mammary tumor cell line were treated with anisomycin in conjunction with inhibitors of overlapping specificity. […] Western blots of the cell lysates were obtained using antibodies specific for phosphor-ATF2, phospho-p38, ATF2, phospho-JNK1/2, phospho-c-Jun. Levels of beta-actin were used as loading controls.

c-Jun = test: Western blot of phospho-c-Jun in 4T1 cells; type: cell-based, mouse; conditions: for activation of c-Jun: anisomycin 1 μg/ml, PMA 0.5 μg/ml
Method: as §1, §2
(§3) In order to study the mechanism of ATF2/c-Jun-mediated induction of FoxP3, chromatin immunoprecipitation (ChIP) was carried out as described in (Im et al., Nat Med 5: 412-417 (1999)) to identify an anisomycin-inducible binding site of the FoxP3 locus. Briefly, 4TI cells were treated with vehicle or anisomycin for 2 hours. The cells were sonicated and the chromatin was fixed with 1% paraformaldehyde. Anti-phospho-c-Jun or anti-phosphor-ATF2 antibodies or control rabbit IgG were used to precipitate chromatin associated with these proteins. The amounts of the specific DNA fragments were quantitated by real-time PCR and normalized against the genomic DNA preparation from the same cells. […] Untreated 4T1 cells barely had detectable amounts of phospho-ATF2 and phospho-c-Jun in the nuclei.

ATF2 = test: Western blot of phospho-ATF2 in 4T1 cells; type: cell-based, mouse; conditions: for activation of ATF2: anisomycin 1 μg/ml, PMA 0.5 μg/ml
Method: as §1, §2, §3

FoxP3 [1] = test: Anisomycin-induced FoxP3 induction in 4T1 cells with kinase inhibitors; type: cell-based, mouse; conditions: inhibitor 2 μg/ml with anisomycin 1 μg/ml
TSA tumor cells = test: TSA tumor in mammary fat pads of BALb/c mice; type: in vivo; conditions: intraperitoneal, every 3 days for 8 times, I mg/mouse
Method: To test whether induction of FoxP3 by ATF2-FoxP3 pathway can be explored for breast cancer therapy, cells (5×10^5) of the TSA cell line were injected into the mammary fat pads of BALb/c mice. Five days later, when the cancer cells established locally, the mice were intraperitoneally treated with vehicle control or anisomycin every 3 days for 8 times at a dose of I mg/mouse.

[2] = system: P10 probe (AP1 site of FoxP3 enhancer); test: Electrophoretic mobility shift of P10 AP1 probe with 4T1 nuclear extracts; type: cell-based, mouse; conditions: nuclear extracts of anisomycin-treated 4T1 cells
Description: Sequencing comparison identified a typical AP1 site within the P10. […] The sequence of nonmutated probe (P10) is […] (bold letters for core AP1 sequence; SEQ ID NO: 173), that for P10-Mt1 is […] (bold letter indicate mutations; SEQ ID NO: 174), while that for P10-Mt2 is […] (SEQ ID NO: 175).

FOXP3-encoding mRNA = test: Induction of FOXP3-encoding mRNA in cancer cell lines (RT-PCR); type: cell-based; conditions: thymoma BW5147, thymic epithelial cell 61.7, breast cancer TSA, treated 14 hr to 2 days
Method: A method was developed to induce FOXP3 expression in cancer cells by activating JNK, P38 and ATF2. Briefly, breast cancer and thymoma cell lines were treated with activators of JNK, P38 and ATF2, such a emetine and anisomycin for 14 hr to 2 days. The cells were analyzed for expression of FOXP3-encoding mRNA by RT-PCR.

[3] = system: breast cancer cell lines MCF-7, BT474, TSA; test: Killing of breast cancer cell lines / MTT viability assay; type: cell-based, human, mouse
Method: Given the impact of FOXP3 activity on tumor growth and cell death, these compounds were also tested for their ability to kill cancer cells. […] The IC50 ranges between 30-100 ng/ml.
To determine whether anisomycin treatment causes apoptosis of breast cancer cells, the cytotoxic effect of anisomycin on several of breast cancer cell lines was measured by MTT assay. 10^4 cells/well of mouse cell line (TSA) or human breast cancer cell lines (TB474 or MCF7) were cultured in the presence of 25, 50, 100, 200, 400, or 800 ng/ml anisomycin for 48 hours. The amounts of viable cells were determined by MTT assay, with viability of the untreated cells defined as 100%. Both mouse (TSA) and human breast cancer cell lines (BT474, MCF-7) were highly susceptible to anisomycin, with an IC50 between 50-100 […].

FOXP3 transcripts = FOXP3 transcripts in primary mammary epithelial cultures of ATF2+/+ and ATF2-/- mice; type: cell-based, mouse
Method: ATF2± mice were obtained from the frozen embryo bank of the Jackson Laboratories and were crossed to produce ATF2+/+ and the ATF2−/− mice. […] Two independent primary cultures were obtained from two ATF2−/− females. Specifically, mouse mammary fat pads were removed from 6 to 8-week-old virgin female mice and minced into small pieces. After collagenase digestion at 37° C. in a shaking incubator in DMEM medium supplemented with 5% fetal calf serum (FBS), cells were sieved through a 70-μm cell strainer (BD Falcon) to obtain a single cell suspension. The cells were cultured in DMEM medium supplemented with 10% FBS and 10 ng/ml epithelial growth factor (EGF). At day 3 of culture, fibroblast cells were removed by a short digestion with 0.05% trypsin-EDTA as less adherent cells.
The primary cultures were then assayed for expressioin of FOXP3 protein by Western blotting cell lysates of the cultures with antibodies specific for FOXP3. The primary transcripts also were assayed for expression of FOXP3 by real-time PCR.

[4] = system: FoxP3 locus P2 and P10 sites; test: ChIP of phospho-ATF2/phospho-c-Jun binding at the FoxP3 locus in 4T1 cells; type: cell-based, mouse
Method: as §3
In order to identify the FoxP3 sequence associated with p-ATF2 and p-c-Jun, the 5′ sequence of the FoxP3 gene was analyzed and 14 potential AP1 and CREB sites were identified. […]

TSA cells = test: Apoptosis: activated caspase 3 staining and DNA content; type: cell-based, mouse
Description: Cells were stained for activated Capsase 3 and also tested for DNA contents. The % of gated cells was apoptotic based on their sub-2C DNA contents.

FOXP3 [5] = test: FOXP3 silencing in HPEC: FOXP3 mRNA; type: cell-based, human; conditions: one week after infection
Method: (§4) To determine whether the endogenous FOXP3 in prostate epithelial cell lines is responsible for MYC repression, the FOXP3 locus was silenced with a lentiviral vector encoding shRNA for FOXP3. Human Prostate Epithelial Cells (HPEC) were purchased from Lonza Group Ltd (Switzerland) and were cultured with medium. An early passage of the HPEC were infected with lentivirus expressing either control shRNA or FOXP3 shRNA vector as described in Zuo et al., 2007, supra. Uninfected cells were removed by drug selection. At one week after infection, the levels of FOXP3 or MYC mRNA were quantitated by RT-PCR. Western blotting was also carried out using anti-FOXP3 or -MYC antibodies. Beta actin was used as a loading control.

MYC = test: FOXP3 silencing in HPEC: MYC transcript; type: cell-based, human; conditions: one week after infection
Method: as §4

[6] = inhibitor 2 μg/ml with anisomycin 1 μg/ml

In the case of Nc1ncn([C@H]2C[C@H](O)[C@@H](CO)O2)c(=O)n1 [5-AZA, 5-aza-2′-deoxycytidine], the “induction of the FOXP3 gene” value (FOXP3 gene) is reported as “two-fold”.

CCCCCCCCCCCCCC(=O)O[C@@H]1[C@@H](C)[C@@]2(O)[C@@H](C=C(CO)C[C@]3(O)C(=O)C(C)=C[C@@H]23)[C@@H]2C(C)(C)[C@]12OC(C)=O [PMA] was tested, and the “activation of JNK” value (JNK) was “failed to activate”, the “activation of p38” value (p38) was “activated” and the “activation of c-Jun” value (c-Jun) was “failed to activate”. The “activation of ATF2” value (ATF2) was “activated”.

C[S+]([O-])c1ccc(-c2nc(-c3ccncc3)c(-c3ccc(F)cc3)[nH]2)cc1 (stereo not shown) [SB] was tested, and the “inhibition of JNK activation by anisomycin” value (JNK; [6]) was “only partially”, the “inhibition of anisomycin-induced FoxP3 induction” value (FoxP3 [1]) was “reduced, but did not eliminate” and the “inhibition of ATF2 activation by anisomycin” value (ATF2; [6]) was “only partially”.

With COc1ccc(C[C@H]2NC[C@H](O)[C@H]2OC(C)=O)cc1 [anisomycin] the “activation of JNK” value (JNK) was “activation”, the side effects (TSA tumor cells) was “did not give obvious side effects” and the “growth of TSA tumor cells in syngeneic mammary pad” value (TSA tumor cells; from day 5) was “nearly completely abrogated”. The “binding of nuclear extracts to nonmutated P10 probe (EMSA)” value [2] was “strong interaction”, the “activation of p38” value (p38) was “activated” and the “activation of c-Jun” value (c-Jun) was “activation”. The “phospho-c-Jun in the nuclear fraction” value (c-Jun; anisomycin 2 hours) was “major increase”, the “induction of FOXP3-encoding mRNA” value (FOXP3-encoding mRNA) was “strong induction” and the “IC50 (cancer cell killing)” value ([3]; 48 hours) was 0.03 to 0.1 µg/mL. For the same compound, the “killing of cancer cells” value ([3]; within 48 hours) was “killed a substantial percentage of cancer cells”, the “activation of ATF2” value (ATF2) was “activated” and the “phospho-ATF2 in the nuclear fraction” value (ATF2; anisomycin 2 hours) was “major increase”. The “FOXP3 transcripts in ATF2+/+ epithelial cultures” value (FOXP3 transcripts; ATF2+/+ primary mammary epithelial cells) was “further induced”, the “FoxP3 transcripts in ATF2-/- cells” value (FOXP3 transcripts; ATF2-/- primary mammary epithelial cells) was “completely refractory” and the “inducibility of ATF2/cJun association with P2 site (ChIP)” value ([4]; P2, 4.8 kb 5′ of exon 1) was “not inducible”. For the same compound, the “enhancement of ATF2/cJun binding to P10 site (ChIP)” value ([4]; P10, 4.2 kb 3′ of exon 1) was “more than 2 fold” and the “active caspase 3 in cells with less than 2C DNA contents” value (TSA cells) was “increased expression of active caspase 3”.

CC[C@H]1CN2CCc3cc(OC)c(OC)cc3[C@@H]2C[C@@H]1C[C@H]1NCCc2cc(OC)c(OC)cc21 [emetine] was tested, and the “induction of FOXP3-encoding mRNA” value (FOXP3-encoding mRNA) was “strong induction”.

In the case of “FoxP3 shRNA: lentiviral shRNA specific for FoxP3 used in mouse TSA cells (SEQ ID NO: 168) (AAGCCATGGCAATAGTTCCTT)”, the “expression of FOXP3 mRNA” value (FOXP3 [5]) is reported as “major reduction” and the “level of MYC transcript” value (MYC) is reported as “significantly elevated”.

— patent publication US8158596B2, “Materials and methods for FOXP3 tumor suppression” (The Regents of the University of Michigan, priority 2007, dated 2012)
